Results: US20220117920A1, “N-Aryl Benzenesulfonamides as Protonophores for the Treatment of Cancers, Metabolic Diseases and Traumatic Brain Injury” (University of Kentucky Research Foundation, priority 2019, published 2022)

What was measured:
Huh7 cells [1] = experiment: Cyto-ID autophagy detection assay in Huh7 cells; format: cell-based, human; details: Huh7, 40 h, ±50 μM CQ
Description: Autophagy responses were monitored with the Cyto-ID autophagy detection reagent 2.0 (Enzo Life Sciences, USA) according to the manufacturer's instructions. Huh7 and PLC/PRF/5 cells were seeded in 12-well plates and treated the following day with drugs or DMSO vehicle control at the indicated concentrations. CQ was added to the corresponding wells to a final concentration of 50 μM 8 h prior harvesting. After 40 h of drug treatment, cells were collected and assessed for viability with Zombie Violet dye solution (BioLegend, USA) followed by Cyto-ID autophagy detection reagent staining. Flow cytometry analyses were performed in a BD LSRII at the Flow Cytometry and Cell Sorting Shared Resource Facility of the University of Kentucky Markey Cancer Center and data were analyzed with the FlowJo Software version 7.6.5 (Tree Star, USA). The autophagic flux was quantified by subtracting the Cyto-ID MFI value of the sample without CQ from the Cyto-ID MFI value of the sample with CQ for each condition according to the formula: […]

Wnt signaling = experiment: Wnt reporter assay, stable HEK293T cell line containing TOPFlash reporter, LiCl-activated; format: cell-based, human; details: 3 μM
Text: To identify novel Wnt regulators by high throughput screening, a stable HEK293T cell line containing the TOPFlash reporter was established. To identify Wnt inhibitors that targeted molecular events downstream of β-catenin, we treated these cells with lithium chloride to inhibit GSK3 and to stabilize β-catenin. […] We also validated the results by transient transfection of Super 8× TOPFlash or 8× FOPFlash into HEK293T cells. […] Since the results from the stable and transient transfection are compatible, we used stable cell lines for all of the other experiments.
Reporter assay. Wnt reporter assay and cell staining assay have been described previously. We subcloned Super 8×TOPFlash (provided by Professor Randall Moon, University of Washington) into the pGL4.83 [hRlucP/Puro] Vector and transfected it into HEK293T cells. A stable HEK293T cell line containing the TOPFlash reporter was established using puromycin selection. To screen Wnt inhibitors that block the downstream signaling transduction pathway of β-catenin, we treated the reporter cells with 25 mM LiCl to stabilize β-catenin and activate Wnt signaling. The potential Wnt inhibitors identified from screening were validated by transfecting TOPFlash or FOPFlash plus control renilla reporters into HEK293T cells, and then treating the cells with DMSO or testing compounds in DMSO solution. The Wnt signaling was activated by LiCl or Wnt3A treatment.

[2] = tested on: Wnt/β-catenin target genes; experiment: Expression of downstream β-catenin targets in Huh7 cells (western blot, RT-qPCR); format: cell-based, human; details: Huh7, 36 h
Description: Primary antibodies are described in Table 1.
(§1) Total RNA was extracted with miRNeasy mini kit (Qiagen, Germany), and the corresponding cDNA was produced using iScript cDNA synthesis kit (BioRad, USA) from 1 μg of total RNA. Real time quantitative PCR (RT-qPCR) was performed using SsoAdvanced Universal SYBR Green supermix (BioRad, USA) with specific primers: p62 (SQSTM1: 5′-[…]-3′ (SEQ ID NO: 1) and 5′-[…]-3′ (SEQ ID NO: 2)); c-MYC (cMYC: 5′-[…]-3′ (SEQ ID NO: 3) and 5′-[…]-3′ (SEQ ID NO: 4)), Survivin (BIRC5, 5′-[…]-3′ (SEQ ID NO: 5) and 5′-[…]-3′ (SEQ ID NO: 6)), AXIN 2 (AXIN2: 5′-[…]-3′ (SEQ ID NO: 7) and 5′-[…]-3′ (SEQ ID NO: 8)), Cyclin D1 (5′-CCND1: […]-3′ (SEQ ID NO: 9) and 5′-[…]-3′ (SEQ ID NO: 10)), and b2-microglobulin (B2M: 5′-[…]-3′ (SEQ ID NO: 11) and 5′-[…]-3′ (SEQ ID NO: 12)). Transcript levels were normalized to β-actin or […] level as indicated using the ΔΔCt method.

p62 = experiment: RT-qPCR of p62 mRNA in Huh7 cells; format: cell-based, human; details: Huh7, absence of CQ
Description: as §1

Huh7 tumor xenograft = Huh7 tumor xenograft model in athymic nude mice; format: in vivo
Description: All animal experiments were performed in accord with the guidelines, rules and recommendations and was approved by the University of Kentucky Institutional Animal Care and Use Committee after approval (IACUC). Three- to four-weeks old female athymic nude mice (nu/nu, The Jackson Laboratory, USA) were housed in a pathogen-free environment at the Division of Laboratory Animal Resources of the Chandler Medical Center, University of Kentucky. To generate in vivo tumors, Huh7 culture cells in mid-log phase growth were collected and re-suspended in a 50% mixture of Matrigel (BD Biosciences, USA) in serum-free medium to a final concentration of 6×10^7 cells per mL. A volume of 0.1 mL of the cell suspension was injected subcutaneously in the right flank of each mouse. Mice were weighed and checked for tumor growth every other day. When tumors reached a volume of 100 mm^3, mice were randomly divided into two groups of 5: vehicle control group and FH535 group (receiving 15 mg of FH535/kg/day from a stock prepared in dimethyl sulfoxide (DMSO) at 21.7 mg/mL and diluted in serum-free medium to a final concentration of 40% DMSO). Vehicle and FH535 were administered by intraperitoneal injection every other day. Tumors were measured using an optical caliper and tumor size was calculated using the formula: 0.5×length×(width)^2. Mice were euthanized at the end of the experiment or when reaching humane end-point following AVMA guidelines. Humane end-points included animals with tumors exceeding 20 mm in maximum diameter, with ulcerated tumors, more than 20% body weight loss, impaired mobility, labored breathing or with a body condition score below 2.
Tumors from the xenograft model were formaldehyde fixed and paraffin-embedded and were used to performed H&E staining and immunohistochemistry of Ki-67 according to standard procedures.

Huh7 cells [3] = experiment: Seahorse mitochondrial stress test (OCR) in Huh7 cells; format: cell-based, human; details: Huh7, 24 h
Description: Oxygen Consumption Rates (OCR) were measured on an XF-96 Extracellular Flux Analyzer (Seahorse Bioscience) using the protocol and conditions optimized for HCC cells as previously described by our group. Briefly, the experiments were performed by seeding 10,000 and 20,000 Huh7 cells per well in XFe 96 well-plates 36 h before the experiment. Cells were treated for 24 h with FH535, FH535-N or vehicle control. In OCR experiments the media was supplemented with 25 mM Glucose and 1 mM Pyruvate just before the assay. After minimal incubation time (˜20-30 min in non-CO2 37° C. incubator) mitochondrial stress test was initiated. […] All reagents used in the Seahorse experiments were purchased from Sigma-Aldrich. Analyses of data were performed with Wave 2.2 software (Seahorse Bioscience), Excel (Microsoft Office 2013) and Prism 7.0 (GraphPad Software).

[4] = tested on: mitochondrial ATP production; experiment: Agilent Seahorse XF Real-Time ATP Rate Assay; format: cell-based, human; details: 3 μM
Description: Seahorse assay. Approximately 3×10^4 cells were seeded in XF96 Cell Culture microplate (80 μL of 3.75×10^5 cells/mL) for all experiments. On the next day, cell culture media were replaced with either Seahorse XF modified media with 25 mM glucose and 1 mM pyruvate. After media exchange, cells were treated with 1 μM of oligomycin A, 1.0 μM FCCP and mixture of 1.0 μM of rotenone and 1.0 μM of antimycin A in standard mitochondrial stress test conditions. To determine the uncoupler effects, FCCP was replaced with an equal volume of DMSO, or a compound to be tested in DMSO solution. ATP production rate was analyzed using Agilent Seahorse XF Real-Time ATP Rate Assay.

Structure (SMILES): Cc1cc([N+](=O)[O-])ccc1NS(=O)(=O)c1cc(Cl)ccc1Cl [FH535, 2,5-dichloro-N-(2-methyl-4-nitrophenyl)benzenesulfonamide]
- autophagic flux (Cyto-ID) (Huh7 cells [1]): reduced accumulation of autophagic vesicles
- inhibition of Wnt signaling (Wnt signaling): inhibited Wnt signaling
- expression of downstream Wnt/β-catenin target genes [2]: reduced expression of endogenous downstream β-catenin target genes
- p62 mRNA levels (p62): increase of p62 mRNA levels
- reduction of tumor weight compared to vehicle (Huh7 tumor xenograft; 15 mg/Kg i.p. every other day, 10 day treatment): 42±8%
- tumor volume compared to control group (Huh7 tumor xenograft; 15 mg/kg every other day, after four days of treatment, p<0.05): significantly reduced
- proliferation index (Ki-67) (Huh7 tumor xenograft; excised tumors, same in control group): greater than 95%
- Proton Leak (Huh7 cells [3]): enhanced Proton Leak
- rate of ATP production in mitochondria [4]: decreased the rates of ATP production in mitochondria
